# From US20100068181A1, “PYRROLO [3, 2-A] PYRIDINE DERIVATIVES FOR INHIBITING KSP KINESIN ACTIVITY” (Schering Corporation, priority 2006, published 2010)
# Molecular target: T1, KSP (Homo sapiens, UniProt P52732)
# T1 sequence (P52732 1-1056): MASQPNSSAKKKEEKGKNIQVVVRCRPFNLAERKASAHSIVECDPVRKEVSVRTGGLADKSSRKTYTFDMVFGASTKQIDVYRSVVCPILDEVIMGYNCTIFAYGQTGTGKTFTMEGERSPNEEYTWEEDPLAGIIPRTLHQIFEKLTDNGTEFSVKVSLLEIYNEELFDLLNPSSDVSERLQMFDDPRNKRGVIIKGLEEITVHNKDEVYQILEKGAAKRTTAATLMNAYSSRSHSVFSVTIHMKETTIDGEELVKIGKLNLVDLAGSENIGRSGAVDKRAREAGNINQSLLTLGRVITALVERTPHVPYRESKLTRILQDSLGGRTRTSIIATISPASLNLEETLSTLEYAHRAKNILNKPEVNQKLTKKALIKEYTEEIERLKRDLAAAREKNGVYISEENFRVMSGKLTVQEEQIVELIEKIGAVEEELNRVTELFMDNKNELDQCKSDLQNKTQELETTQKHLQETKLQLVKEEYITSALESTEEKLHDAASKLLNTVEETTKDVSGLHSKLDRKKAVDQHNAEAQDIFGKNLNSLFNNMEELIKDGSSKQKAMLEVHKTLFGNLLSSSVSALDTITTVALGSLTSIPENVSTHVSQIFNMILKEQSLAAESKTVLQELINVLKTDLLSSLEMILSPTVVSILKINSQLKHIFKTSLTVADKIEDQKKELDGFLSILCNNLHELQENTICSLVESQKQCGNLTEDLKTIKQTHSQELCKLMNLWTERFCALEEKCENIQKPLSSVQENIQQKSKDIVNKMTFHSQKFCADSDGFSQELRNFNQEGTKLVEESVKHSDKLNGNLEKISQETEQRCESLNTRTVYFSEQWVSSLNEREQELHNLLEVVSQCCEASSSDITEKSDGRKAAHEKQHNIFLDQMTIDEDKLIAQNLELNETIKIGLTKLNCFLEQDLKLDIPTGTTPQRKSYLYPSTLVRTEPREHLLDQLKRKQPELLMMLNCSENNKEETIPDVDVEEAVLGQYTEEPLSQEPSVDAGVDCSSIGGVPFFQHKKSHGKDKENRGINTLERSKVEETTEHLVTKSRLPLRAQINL
# Experiment: KSP inhibitory activity, end-point assay
# Format: biochemical
# Settings: KSP inhibitory activity based on end-point assay; read-out: IC50 Rating
# Source text: The inhibitory activity of the present compounds towards KSP may be assayed by methods known in the art, for example, by using the methods as described in the examples.
row,Compound,IC50 [nM]
1,C[C@@H](CO)NC(=O)c1c[nH]c2cc3c(nc12)CCC(C(C)(C)C)C3 (stereo partly shown) [Example 76],> 10000
2,C[C@H](CO)NC(=O)c1c[nH]c2cc3c(nc12)CCC(C(C)(C)C)C3 (stereo partly shown) [Example 77],> 10000
3,C=CCNC(=O)c1c[nH]c2cc3c(nc12)CCC(C(C)(C)C)C3 (stereo not shown) [Example 78],> 10000
4,CC(C)(C)C1CCc2nc3c(C(=O)NN)c[nH]c3cc2C1 (stereo not shown) [Example 79],100 to 1000
5,CC(C)(C)C1CCc2nc3c(C(=O)NCCCO)c[nH]c3cc2C1 (stereo not shown) [Example 80],1000 to 10000
6,CC(C)(C)C1CCc2nc3c(C(N)=O)c[nH]c3cc2C1 (stereo not shown) [Example 82],100 to 1000
7,CC(C)(C)C1CCc2nc3cc[nH]c3cc2C1 (stereo not shown) [Example 83],< 100
8,CC(=O)Nc1c[nH]c2cc3c(nc12)CCC(C(C)(C)C)C3 (stereo not shown) [Example 84],1000 to 10000
9,CC(C)(C)C1CCc2nc3c(CC(N)=O)c(O)[nH]c3cc2C1 (stereo not shown) [Example 85],> 10000
10,COCCOCc1cc2nc3c(cc2[nH]1)CC(C(C)(C)C)CC3 (stereo not shown) [Example 86],100 to 1000
11,COCc1cc2nc3c(cc2[nH]1)CC(C(C)(C)C)CC3 (stereo not shown) [Example 87],100 to 1000
12,CCOCc1cc2nc3c(cc2[nH]1)CC(C(C)(C)C)CC3 (stereo not shown) [Example 88],100 to 1000
13,CC(C)OCc1cc2nc3c(cc2[nH]1)CC(C(C)(C)C)CC3 (stereo not shown) [Example 89],> 10000
14,Cc1cc(C)n(C(=O)c2c[nH]c3cc4c(nc23)CCC(C(C)(C)C)C4)n1 (stereo not shown) [Example 93],> 10000
15,CC(C)(C)C1CCc2nc3c(C(=O)Nc4ncccn4)c[nH]c3cc2C1 (stereo not shown) [Example 94],> 10000
16,COc1cccc(C(O)c2cc3nc4c(cc3[nH]2)CC(C(C)(C)C)CC4)c1 (stereo not shown) [Example 110],> 10000
17,COc1ccc(C(O)c2cc3nc4c(cc3[nH]2)CC(C(C)(C)C)CC4)cc1 (stereo not shown) [Example 111],> 10000
18,CCC(O)c1cc2nc3c(cc2[nH]1)CC(C(C)(C)C)CC3 (stereo not shown) [Example 113],100 to 1000
19,C=CCC(O)c1cc2nc3c(cc2[nH]1)CC(C(C)(C)C)CC3 (stereo not shown) [Example 114],100 to 1000
20,CC(C)(C)C1CCc2nc3c(-c4cccc(O)c4)c(C(N)=O)[nH]c3cc2C1 (stereo not shown) [Example 115],1000 to 10000
21,COc1cccc(-c2c(C(N)=O)[nH]c3cc4c(nc23)CCC(C(C)(C)C)C4)c1 (stereo not shown) [Example 116],> 10000
22,CC(C)(C)C1CCc2nc3c(-c4cccc(OC(F)(F)F)c4)c(C(N)=O)[nH]c3cc2C1 (stereo not shown) [Example 117],> 10000
23,COc1ccc(OC)c(-c2c(C(N)=O)[nH]c3cc4c(nc23)CCC(C(C)(C)C)C4)c1 (stereo not shown) [Example 118],> 10000
24,CC(C)(C)C1CCc2nc3c(-c4cccc(C#N)c4)c(C(N)=O)[nH]c3cc2C1 (stereo not shown) [Example 119],> 10000
25,CC(C)(C)C1CCc2nc3c(-c4cccc(S(C)(=O)=O)c4)c(C(N)=O)[nH]c3cc2C1 (stereo not shown) [Example 120],100 to 1000
26,CC(C)(C)C1CCc2nc3c(-c4cccc(N)c4)c(C(N)=O)[nH]c3cc2C1 (stereo not shown) [Example 121],> 10000
27,CC(C)(C)C1CCc2nc3cc(C(=O)N[C@H](CN)c4cccc(NC(=O)c5ccco5)c4)[nH]c3cc2C1 (stereo partly shown) [Example 124],< 100

# The next lines start with the values.
row,IC50 [nM],Compound
1,> 10000,CC(C)(C)C1CCc2nc3cc(C(=O)NCc4ccc5c(c4)OCO5)[nH]c3cc2C1 (stereo not shown) [Example 90]
2,> 10000,CC(C)(C)C1CCc2nc3cc(C(=O)NCc4ccccn4)[nH]c3cc2C1 (stereo not shown) [Example 91]
3,1000 to 10000,CC(C)(C)C1CCc2nc3cc(C(=O)NCCN4CCNCC4)[nH]c3cc2C1 (stereo not shown) [Example 92]
4,> 10000,CC(C)(C)C1CCc2nc3cc(C(=O)NNc4ccccc4)[nH]c3cc2C1 (stereo not shown) [Example 95]
5,100 to 1000,CC(C)(C)C1CCc2nc3cc(C(=O)Nc4nnn[nH]4)[nH]c3cc2C1 (stereo not shown) [Example 96]
6,100 to 1000,CC(C)(C)C1CCc2nc3cc(C(=O)Nc4ccncc4)[nH]c3cc2C1 (stereo not shown) [Example 97]
7,> 10000,CCOC(=O)c1cc(NC(=O)c2cc3nc4c(cc3[nH]2)CC(C(C)(C)C)CC4)c[nH]1 (stereo not shown) [Example 98]
8,> 10000,CC(C)(C)C1CCc2nc3cc(C(=O)NNCCC#N)[nH]c3cc2C1 (stereo not shown) [Example 99]
9,> 10000,CNNC(=O)c1cc2nc3c(cc2[nH]1)CC(C(C)(C)C)CC3 (stereo not shown) [Example 100]
10,100 to 1000,CC(C)(C)C1CCc2nc3cc(C(=O)NNc4ccccn4)[nH]c3cc2C1 (stereo not shown) [Example 101]
11,100 to 1000,CC(C)(C)C1CCc2nc3cc(C(=O)Nc4ccc(O)cc4)[nH]c3cc2C1 (stereo not shown) [Example 102]
12,100 to 1000,CC(C)(C)[C@@H]1CCc2nc3cc(C(=O)Nc4ccc(O)cc4)[nH]c3cc2C1 [Example 103A]
13,> 10000,CC(C)(C)[C@H]1CCc2nc3cc(C(=O)Nc4ccc(O)cc4)[nH]c3cc2C1 [Example 103B]
14,100 to 1000,CC(C)(C)C1CCc2nc3cc(C(=O)Nc4ccc(N)nc4)[nH]c3cc2C1 (stereo not shown) [Example 104]
15,1000 to 10000,CC(C)(C)C1CCc2nc3cc(C(=O)Nc4ccc(CCO)cc4)[nH]c3cc2C1 (stereo not shown) [Example 105]
16,100 to 1000,CC(C)(C)C1CCc2nc3cc(C(=O)N[C@H](CO)c4ccccc4)[nH]c3cc2C1 (stereo partly shown) [Example 106]
17,> 10000,CC(C)(C)C1CCc2nc3cc(C(=O)N[C@@H](CO)c4ccccc4)[nH]c3cc2C1 (stereo partly shown) [Example 107]
18,> 10000,CC(C)(C)C1CCc2nc3cc(C(=O)N[C@H](CO)Cc4ccccc4)[nH]c3cc2C1 (stereo partly shown) [Example 108]
19,> 10000,CC(C)(C)C1CCc2nc3cc(C(O)c4ccccc4)[nH]c3cc2C1 (stereo not shown) [Example 109]
20,> 10000,CC(C)(C)C1CCc2nc3cc(C(O)c4cccc(Cl)c4)[nH]c3cc2C1 (stereo not shown) [Example 112]
21,100 to 1000,CC(C)(C)C1CCc2nc3cc(C(=O)N[C@H](CN)c4ccccc4)[nH]c3cc2C1 (stereo partly shown) [Example 122]
22,< 100,CC(C)(C)C1CCc2nc3cc(C(=O)N[C@H](CN)c4cccc(N)c4)[nH]c3cc2C1 (stereo partly shown) [Example 123]
